Converted amounts (≈) assume the structure as drawn. Where two headings read alike, the source gives them in different places.
How the values were obtained:
[1] = Acute toxicity in male CF 1 mice; conditions: mouse, in vivo
Description: Similarly, in another series of tests the acute toxicity of antibiotics 67-121A, 67-121B and 67121C were determined in male CF 1 mice.

[2] = test system: Candida albicans; assay: In vivo protective activity in mice against Candida albicans, single dose one hour after infection; set-up: species or system CF 1 mice; conditions: read-out: PD50
Description: (§1) The in vivo protective activity of the antibiotic products in mice (Carworth farm CF 1 mice, each weighing about 20 g.) against Candida albicans was determined. The antibiotic was administered by the stated route in an aqueous vehicle containing 0.5% carboxymethyl cellulose and in two doses. One dose was administered shortly before intravenous infection with a lethal dose of Candida albicans and the other dose was administered 4 hours after infection. Most of the unprotected control mice died within 24 to 48 hours after infection. The survival rate was determined at the end of 24 and 48 hours and from this using standard procedures the PD50 values were determined.
The PD50 values for antibiotics 67-121A, 67-121B and 67-121C using CF 1 mice were determined using essentially the above described method, with the exception that the antibiotic was administered as a single dose one hour after infection with Candida albicans.
The PD50 values were determined on survivors 72 hours after infection. Of the untreated, infected control mice, 80% died within 24 hours and 100% within 48 hours.

[3] = pKa; conditions: 66% aqueous dimethylformamide, 66% aqueous dimethyl formamide
[4] = physchem; conditions: 66% aqueous dimethylformamide
[5] = test system: Cryotococcus; assay: In vitro antifungal activity, MIC by tube dilution; type: cell-based; conditions: single strain; same conditions (48 hours)
Description: (§2) For reference, data on candicidin are also given. The quoted minimal inhibitory concentrations (MIC) were obtained by conventional tube dilution techniques using Sabouraud's dextrose broth.
(§3) As representative of the component antibiotics, antibiotic 67-121A and antibiotic 67-121C were tested in the same manner as the complex. Antibiotic 67-121A gave MIC values of from less than 0.01 up to 0.03 meg/ml. against 18 strains of Candida albicans, while antibiotic 67-121C gave MIC values of 0.05 to 0.3 meg/ml. against 9 strains of Candida albicans after incubation times of 48 hours. Further testing of antibiotic 67-121C under the same conditions gave MIC values of 0.3 meg/ml. against two strains of Torulopsis and a single strain of Cryotococcus.

[6] = test system: Torulopsis; assay: In vitro antifungal activity, MIC by tube dilution; type: cell-based; conditions: two strains of Torulopsis; same conditions (48 hours)
Description: as §2, §3

[7] = test system: mice; assay: Acute toxicity in mice; type: in vivo
Description: The acute toxicity of the antibiotic 67-121 complex in mice was determined via intraperitoneal (I.P.) and subcutaneous (S.C.) administration. For comparison, the values of candicidin were determined.

[8] = test system: Candida albicans; assay: In vitro antifungal activity, MIC by tube dilution (Sabouraud's dextrose broth); type: cell-based
Description: as §2, §3

[9] = test system: Trichophyton mentagrophytes; assay: In vitro antifungal activity, MIC by tube dilution; type: cell-based; conditions: 72 hrs.
Source text: as §2

[10] = test system: Terulopsis glabrata; assay: In vitro antifungal activity, MIC by tube dilution; type: cell-based
Source text: as §2

[11] = test system: Aspergillus niger; assay: In vitro antifungal activity, MIC by tube dilution; type: cell-based; conditions: 72 hrs.
Source text: as §2

[12] = test system: Trichophyton soudanese; assay: In vitro antifungal activity, MIC by tube dilution; type: cell-based; conditions: strain 2; 72 hrs.
Source text: as §2

[13] = test system: Candida albicans; assay: In vivo protective activity in mice against lethal Candida albicans infection, two doses; set-up: species or system mice (Carworth farm CF 1); conditions: survivors 48 hours after infection
Description: as §1
The results obtained for the Antibiotic 67-121 complex are given in Table 5 together with data for candicidin (for comparison purposes). The PD50 values were determined on survivors 48 hours after infection.

[14] = Oral, single dose one hour after infection, survivors 72 hours after infection
[15] = sc, Subcutaneous, single dose one hour after infection, survivors 72 hours after infection

CNc1ccc(C(=O)CC(O)CCC(C)C2OC(=O)CC(O)CC(O)CC(O)CC(O)CC(O)CC(O)CC3(O)CC(O)C(C(=O)O)C(CC(OC4OC(C)C(O)C(N)C4O)C=CC=CC=CC=CC=CC=CC=CC2C)O3)cc1 (centres unmarked) [Antibiotic 67-121A]
LD50 ([1]; ip, I.P.): 2.4 mg/kg
LD50 ([1]; sc, S.C.): > 50 mg/kg
LD50 ([1]; Oral): > 50 mg/kg
ED50 ([2]; po, 72 h): 1.5 mg/kg
ED50 ([2]; sc, 72 h): 2.5 mg/kg
pKa ([3]; pka (COO^-)): 6
pKa ([3]; pka (NH3^+)): 9

CC1C=CC=CC=CC=CC=CC=CC=CC(OC2OC(C)C(O)C(N)C2O)CC2OC(O)(CC(O)CC(O)CC(O)CC(O)CC(O)CC(O)CC(=O)OC1C(C)CCC(O)CC(=O)c1ccc(N)cc1)CC(O)C2C(=O)O (centres unmarked) [Antibiotic 67-121B]
pKa ([4]; pka (COO^-)): 6.3
pKa ([4]; pka (NH3^+)): 9
LD50 ([1]; ip): 6 mg/kg
LD50 ([1]; po): > 50 mg/kg
LD50 ([1]; sc): > 50 mg/kg
ED50 [2, 14]: 18 mg/kg
ED50 [2, 15]: 15 mg/kg

CNc1ccc(C(=O)CC(O)CCC(C)C2OC(=O)CC(O)CC(O)CC(O)CC(O)CC(O)CC(O)CC3(O)CC(O)C(C(=O)O)C(CC(OC4OC(C)C(OC5OC(CO)C(O)C(O)C5O)C(N)C4O)C=CC=CC=CC=CC=CC=CC=CC2C)O3)cc1 (centres unmarked) [Antibiotic 67-121C]
pKa ([4]; pka (COO^-)): 6
pKa ([4]; pka (NH3^+)): 9
LD50 ([1]; ip): 6 mg/kg
ED50 [2, 14]: 1.5 mg/kg
ED50 [2, 15]: 2.1 mg/kg
MIC [5]: 0.3 µg/mL (≈ 0.232 µM)
MIC [6]: 0.3 µg/mL (≈ 0.232 µM)

Candicidin
LD50 ([7]; I.P.): 8 to 22 mg/kg
LD50 ([7]; S.C.): 300 mg/kg
Minimum Inhibitory Concentration (M.I.C.) ([8]; strain 401, 24 hrs.): 0.8 meg/ml
Minimum Inhibitory Concentration (M.I.C.) ([8]; strain 401, 48 hrs.): 3.0 meg/ml
Minimum Inhibitory Concentration (M.I.C.) ([8]; strain 402, 24 hrs.): 0.03 meg/ml
Minimum Inhibitory Concentration (M.I.C.) ([8]; strain 402, 48 hrs.): 0.08 meg/ml
Minimum Inhibitory Concentration (M.I.C.) ([8]; strain 403, 24 hrs.): 0.03 meg/ml
Minimum Inhibitory Concentration (M.I.C.) ([8]; strain 403, 48 hrs.): 0.08 meg/ml
Minimum Inhibitory Concentration (M.I.C.) ([8]; strain 404, 24 hrs.): 0.8 meg/ml
Minimum Inhibitory Concentration (M.I.C.) ([8]; strain 404, 48 hrs.): 3.0 meg/ml
Minimum Inhibitory Concentration (M.I.C.) ([8]; strain 406, 24 hrs.): 0.03 meg/ml
Minimum Inhibitory Concentration (M.I.C.) ([8]; strain 406, 48 hrs.): 0.08 meg/ml
Minimum Inhibitory Concentration (M.I.C.) ([8]; strain 420, 24 hrs.): 3.0 meg/ml
Minimum Inhibitory Concentration (M.I.C.) ([8]; strain 420, 48 hrs.): 7.5 meg/ml
Minimum Inhibitory Concentration (M.I.C.) ([9]; strain 1A): 17.5 meg/ml
Minimum Inhibitory Concentration (M.I.C.) ([9]; strain 17): 25 meg/ml
Minimum Inhibitory Concentration (M.I.C.) ([10]; strain 1, 24 hrs.): 0.03 meg/ml
Minimum Inhibitory Concentration (M.I.C.) ([10]; strain 1, 48 hrs.): 0.3 meg/ml
Minimum Inhibitory Concentration (M.I.C.) ([10]; strain 2, 24 hrs.): 0.03 meg/ml
Minimum Inhibitory Concentration (M.I.C.) ([10]; strain 2, 48 hrs.): 0.08 meg/ml
Minimum Inhibitory Concentration (M.I.C.) ([10]; strain 3, 24 hrs.): 0.03 meg/ml
Minimum Inhibitory Concentration (M.I.C.) ([10]; strain 3, 48 hrs.): 0.08 meg/ml
Minimum Inhibitory Concentration (M.I.C.) ([10]; strain 16, 24 hrs.): 0.03 meg/ml
Minimum Inhibitory Concentration (M.I.C.) ([10]; strain 16, 48 hrs.): 0.3 meg/ml
Minimum Inhibitory Concentration (M.I.C.) ([10]; strain 17, 24 hrs.): 0.03 meg/ml
Minimum Inhibitory Concentration (M.I.C.) ([10]; strain 17, 48 hrs.): 0.08 meg/ml
Minimum Inhibitory Concentration (M.I.C.) [11]: 7.5 meg/ml
Minimum Inhibitory Concentration (M.I.C.) [12]: 25 meg/ml
PD50 ([13]; Test 1, Oral): 25 mg/kg
PD50 ([13]; Test 1, Subcutaneous): 5 mg/kg
PD50 ([13]; Test 2, Oral): 5 mg/kg
PD50 ([13]; Test 2, Subcutaneous): 5 mg/kg
PD50 ([13]; Test 3, Subcutaneous): 25 mg/kg
PD50 ([13]; Test 4, Oral): 40 mg/kg
PD50 ([13]; Test 4, Subcutaneous): 2.5 mg/kg

Reference: patent publication US4359462A, “Antibiotic 67-121, a new polyene antifungal antibiotic produced by Actinoplanes caeruleus” (priority 1980, dated 1982)
